Assay results: PMC5607265, “Design, synthesis and structure-activity relationship of 3,6-diaryl-7H-[1,2,4]triazolo[3,4-b][1,3,4]thiadiazines as novel tubulin inhibitors” (Scientific Reports, 2017)
Entries after “also recorded” stand apart in the source; their conditions may differ. Like-named read-outs stand apart in the source and are kept apart here.

Experiments:
[1] = tested on: SGC-7901, A549 and HT-1080 cell lines; assay: MTT antiproliferative assay, span over the three cell lines; format: cell-based, human; settings: for antiproliferative activity in words: SGC-7901, A549 and HT-1080; for IC50: read-out: IC50 range against the three human cancer cell lines
Experimental: (§1) The SGC-7901, A549 and HT-1080 cell lines were purchased from the American Type Culture Collection (ATCC, Manassas, VA, USA). […] Briefly, approximately 3 × 10^4 cells were seeded in a 96-well plate. After 24 h of incubation at 37 °C, cells were exposed to compounds of differing concentrations for 24 h. After treatment, cells were washed with 1X PBS followed by addition of 100 µL of 0.05% MTT reagent to each well, followed by incubation for 4 h at 37 °C. After incubation, the supernatant from each well was carefully removed and the formazan crystals were dissolved in 100 µL of DMSO. The colour density was measured spectrophotometrically at 490 nm using a microplate reader (SpectraMax Plus384, Molecular Devices Corp., USA). The data were calculated and plotted as percent viability compared to control.
as §1

[2] = tested on: lung adenocarcinoma A549 cells; assay: MTT antiproliferative assay, A549; format: cell-based, human; settings: read-out: IC50 A549
Experimental: as §1, §1

[3] = tested on: gastric adenocarcinoma SGC-7901 cells; assay: MTT antiproliferative assay, SGC-7901; format: cell-based, human; settings: read-out: IC50 SGC-7901
Experimental: as §1, §1

[4] = tested on: fibrosarcoma HT-1080 cells; assay: MTT antiproliferative assay, HT-1080; format: cell-based, human; settings: read-out: IC50 HT-1080
Experimental: as §1, §1

[5] = target: T1, highly purified tubulin from porcine brain (Sus scrofa, UniProt P02554); assay: Tubulin polymerization assay; format: biochemical; settings: CA-4 0.5-4 µM, 6i 0.1-8.0 µM, paclitaxel 5.0 µM, 37 °C
T1 construct: highly purified tubulin from porcine brain; purchased Cytoskeleton BK011P; host or cells: porcine brain (tissue-purified)
T1 sequence (P02554 whole entry): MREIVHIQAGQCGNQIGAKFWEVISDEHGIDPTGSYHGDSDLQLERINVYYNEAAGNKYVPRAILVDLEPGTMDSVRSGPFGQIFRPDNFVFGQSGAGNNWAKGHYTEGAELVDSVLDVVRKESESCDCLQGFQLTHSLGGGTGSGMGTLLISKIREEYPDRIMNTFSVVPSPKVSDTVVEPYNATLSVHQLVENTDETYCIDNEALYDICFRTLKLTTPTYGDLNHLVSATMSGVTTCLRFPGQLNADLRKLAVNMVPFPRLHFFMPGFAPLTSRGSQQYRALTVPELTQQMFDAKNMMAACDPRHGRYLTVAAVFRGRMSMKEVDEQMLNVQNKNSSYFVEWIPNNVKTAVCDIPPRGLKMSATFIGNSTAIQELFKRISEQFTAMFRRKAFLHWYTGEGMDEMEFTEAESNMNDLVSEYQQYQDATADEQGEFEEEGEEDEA
T1 sequence (P02550 whole entry partner): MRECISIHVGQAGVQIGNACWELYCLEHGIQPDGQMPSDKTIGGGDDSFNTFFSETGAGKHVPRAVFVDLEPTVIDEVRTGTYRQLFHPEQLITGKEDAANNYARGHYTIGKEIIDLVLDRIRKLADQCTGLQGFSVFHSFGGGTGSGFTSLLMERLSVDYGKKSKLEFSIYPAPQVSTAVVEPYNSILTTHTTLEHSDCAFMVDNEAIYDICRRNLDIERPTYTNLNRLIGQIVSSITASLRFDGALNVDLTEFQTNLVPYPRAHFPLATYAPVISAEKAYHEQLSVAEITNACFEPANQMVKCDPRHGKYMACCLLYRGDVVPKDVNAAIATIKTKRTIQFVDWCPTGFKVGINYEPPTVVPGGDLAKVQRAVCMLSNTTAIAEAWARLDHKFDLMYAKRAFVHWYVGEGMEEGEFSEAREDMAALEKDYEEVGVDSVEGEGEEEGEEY
Experimental: This assay uses highly purified tubulin from porcine brain.
The reaction was monitored at 37 °C.
(§2) Tubulin polymerization assay[33] was conducted with reagents as described in the kit manufacturer (Cytoskeleton, Cat.#BK011P) in a 96-well plate. In brief, tubulin was re-suspended in ice-cold G-PEM buffer (80 mM PIPES, 2 mM MgCl2, 0.5 mM EGTA, 1 mM GTP, 20% (v/v) glycerol) and added to wells on a 96-well plate containing the designated concentration of drugs or vehicle. Samples were mixed well, and tubulin assembly was monitored (emission wavelength: 450 ± 20 nm; excitation wavelength: 360 ± 20 nm) at 1 min intervals for 90 min at 37 °C in a SpectraMax 340PC spectrophotometer (Biotek Synergy HT, Winooskin, VT, USA). IC50 values were calculated from data at the 20 min time point using GraphPad Prism software. Experiments were repeated three times.
as §2, with “assay” for “assay[33]”, “450±20” for “450 ± 20”, “360±20” for “360 ± 20”, “timepoint” for “time point”

HCT116 = tested on: HCT116; design: method as in Org. Biomol. Chem. 2005, 3, 2657-2660; settings: ref Org. Biomol. Chem. 2005, 3, 2657-2660; cited from earlier work
[6] = range over SGC-7901, A549 and HT-1080, MTT assay
[7] = MTT assay, 24 h exposure, triplicate
[8] = Homo sapiens, A549, MTT assay, 24 h exposure, triplicate
[9] = Homo sapiens, SGC-7901, MTT assay, 24 h exposure, triplicate
[10] = Homo sapiens, HT-1080, MTT assay, 24 h exposure, triplicate

| Compound | melting point [°C] | IC50 [2, 8] [nM] | IC50 [3, 9] [nM] | IC50 [4, 10] [nM] | antiproliferative activity in words ([1]; MTT assay) | also measured |
| --- | --- | --- | --- | --- | --- | --- |
| COc1ccc(-c2nnc3n2N=C(c2ccc(C)cc2)CS3)c(OC)c1OC [Compound 4d, 3-(2,3,4-Trimethoxyphenyl)-6-(4-methyphenyl)-7H-[1,2,4]triazolo[3,4-b][1,3,4]thiadiazine] | – | – | – | – | IC50 values at the nanomolar level | IC50 [1, 6]: 28 to 73 nM; IC50 [2, 7]: 73 nM; IC50 [3, 7]: 66 nM; IC50 [4, 7]: 28 nM |
| COc1ccc(C2=Nn3c(nnc3-c3ccc(OC)c(OC)c3OC)SC2)cc1N [Compound 4j, 3-(2,3,4-Trimethoxyphenyl)-6-(3-amino-4-methoxyphenyl)-7H-[1,2,4]triazolo[3,4-b][1,3,4]thiadiazine] | 93 to 94 | – | – | – | only moderate activity | IC50 ([2]; Homo sapiens, A549, 24 h): 1580 nM; IC50 ([3]; Homo sapiens, SGC-7901, 24 h): 1570 nM; IC50 ([4]; Homo sapiens, HT-1080, 24 h): 890 nM |
| COc1ccc(C2=Nn3c(nnc3-c3ccc(OC)c(OC)c3OC)SC2)cc1O [Compound 4l, 3-(2,3,4-Trimethoxyphenyl)-6-(3-hydroxy-4-methoxyphenyl)-7H-[1,2,4]triazolo[3,4-b][1,3,4]thiadiazine] | 88 to 89 | 7730 | 16300 | 630 | only moderate activity | – |
| COc1cc(-c2nnc3n2N=C(c2ccc(C)cc2)CS3)cc(OC)c1OC [Compound 5b, 3-(3,4,5-Trimethoxyphenyl)-6-(4-methyphenyl)-7H-[1,2,4]triazolo[3,4-b][1,3,4]thiadiazine] | – | – | – | – | IC50 values at the nanomolar level | IC50 [1, 6]: 16 to 27 nM; IC50 [2, 7]: 19 nM; IC50 [3, 7]: 27 nM; IC50 [4, 7]: 16 nM |
| COc1ccc(C2=Nn3c(nnc3-c3cc(OC)c(OC)c(OC)c3)SC2)cc1O [Compound 5i, 3-(3,4,5-Trimethoxyphenyl)-6-(3-hydroxy-4-methoxyphenyl)-7H-[1,2,4]triazolo[3,4-b][1,3,4]thiadiazine] | 95 to 97 | – | – | – | IC50 values at the nanomolar level | IC50 ([1]; Homo sapiens): 26 to 71 nM; IC50 ([2]; Homo sapiens, A549, 24 h): 71 nM; IC50 ([3]; Homo sapiens, SGC-7901, 24 h): 26 nM; IC50 ([4]; Homo sapiens, HT-1080, 24 h): 47 nM |
| COc1ccc(C2=Nn3c(nnc3-c3ccc4c(c3)OCO4)SC2)cc1N [Compound 6c, 3-(3,4-Methylenedioxyphenyl)-6-(3-amino-4-methoxyphenyl)-7H-[1,2,4]triazolo[3,4-b][1,3,4]thiadiazine] | 88 to 90 | 26 | 18 | 21 | nanomolar IC50 values against all tested cells; also recorded: IC50 values at the nanomolar level | – |
| COc1ccc(C2=Nn3c(nnc3-c3ccc4c(c3)OCO4)SC2)cc1O [Compound 6e, 3-(3,4-Methylenedioxyphenyl)-6-(3-hydroxy-4-methoxyphenyl)-7H-[1,2,4]triazolo[3,4-b][1,3,4]thiadiazine] | 85 to 87 | 79 | 37 | 35 | nanomolar IC50 values against all tested cells; also recorded: IC50 values at the nanomolar level | – |
| CC(=O)O[C@H]1C(=O)[C@@]2(C)[C@H]([C@H](OC(=O)c3ccccc3)[C@]3(O)C[C@H](OC(=O)[C@H](O)[C@@H](NC(=O)c4ccccc4)c4ccccc4)C(C)=C1C3(C)C)[C@]1(OC(C)=O)CO[C@@H]1C[C@@H]2O [paclitaxel, reference compound] | – | – | – | – | – | effect on tubulin polymerization in words [5]: could distinctly promoted this process |
| COc1ccc(/C=C/C=C\c2cc(OC)c(OC)c(OC)c2)cc1O [vinylogous CA-4 (Z,E), vinylogous CA-4] | – | – | – | – | – | IC50 (HCT116): 163 nM |

More lines, main results first:

| melting point [°C] | IC50 [2, 8] [nM] | IC50 [3, 9] [nM] | IC50 [4, 10] [nM] | Compound | antiproliferative activity in words ([1]; MTT assay) | also measured |
| --- | --- | --- | --- | --- | --- | --- |
| 190 to 192 | 3680 | 5040 | 3320 | COc1ccc(-c2nnc3n2N=C(c2ccc(OC)c([N+](=O)[O-])c2)CS3)cc1OC [Compound 6f, 3-(3,4-Dimethoxyphenyl)-6-(3-nitro-4-methoxyphenyl)-7H-[1,2,4]triazolo[3,4-b][1,3,4]thiadiazine] | – | – |
| 213 to 215 | 32 | 23 | 18 | COc1ccc(C2=Nn3c(nnc3-c3ccc(OC)c(OC)c3)SC2)cc1N [Compound 6g, 3-(3,4-Dimethoxyphenyl)-6-(3-amino-4-methoxyphenyl)-7H-[1,2,4]triazolo[3,4-b][1,3,4]thiadiazine] | IC50 values at the nanomolar level | antiproliferative activity in words ([1]; MTT assay, listed as 6 g): nanomolar IC50 values against all tested cells |
| 207 to 208 | 4200 | 2550 | 1910 | COc1cccc(-c2nnc3n2N=C(c2ccc(OC)c([N+](=O)[O-])c2)CS3)c1 [Compound 6h, 3-(3-Methoxyphenyl)-6-(3-nitro-4-methoxyphenyl)-7H-[1,2,4]triazolo[3,4-b][1,3,4]thiadiazine] | – | – |
| 97 to 99 | 5680 | 8040 | 2320 | COc1ccc(-c2nnc3n2N=C(c2ccc(OC)c([N+](=O)[O-])c2)CS3)cc1 [Compound 6j, 3-(4-Methoxyphenyl)-6-(3-nitro-4-methoxyphenyl)-7H-[1,2,4]triazolo[3,4-b][1,3,4]thiadiazine] | – | – |
| 214 to 215 | 38 | 36 | 23 | COc1ccc(-c2nnc3n2N=C(c2ccc(OC)c(N)c2)CS3)cc1 [Compound 6k, 3-(4-Methoxyphenyl)-6-(3-amino-4-methoxyphenyl)-7H-[1,2,4]triazolo[3,4-b][1,3,4]thiadiazine] | nanomolar IC50 values against all tested cells; also recorded: IC50 values at the nanomolar level | – |
